Test results taken from ChEMBL document CHEMBL1909046, “DrugMatrix in vitro pharmacology data”.

Key:
[1] = DRUGMATRIX: GABAA, Flunitrazepam, Central radioligand binding (ligand: [3H] Flunitrazepam); assay type: cell membranes, Rattus norvegicus, Wistar, Brain, Membrane; details: Not Active = under 50% inhibition at 10 µM
[2] = DRUGMATRIX: Glutamate, NMDA, Agonism radioligand binding (ligand: [3H] CGP-39653); assay type: cell membranes, Rattus norvegicus, Wistar, Cerebral cortex, Membrane; details: Not Active = under 50% inhibition at 10 µM
[3] = target: 5-hydroxytryptamine receptor 4 (Cavia porcellus, UniProt O70528); assay type: cell membranes, Dunkin-Hartley, Striatum, Membrane; note: in other assays of this panel Not Active means under 50% inhibition at 10 µM
[4] = DRUGMATRIX: Potassium Channel [KATP] radioligand binding (ligand: [3H] Glyburide); assay type: cell membranes, Membrane; details: hit-t15; Not Active = under 50% inhibition at 10 µM
[5] = target: Epidermal growth factor receptor (Homo sapiens, UniProt P00533); assay: DRUGMATRIX: Protein Tyrosine Kinase, EGF Receptor enzyme inhibition (substrate: Poly(Glu:Tyr)); assay type: cell-based, Insect cells; details: Not Active = under 50% inhibition at 10 µM
[6] = target: Beta-1 adrenergic receptor (Homo sapiens, UniProt P08588); assay: DRUGMATRIX: Adrenergic beta1 radioligand binding (ligand: [125I] Cyanopindolol); assay type: cell membranes, CHO-K1, Membrane; details: cho-k1; Not Active = under 50% inhibition at 10 µM
Sequence of Beta-1 adrenergic receptor (P08588 whole entry): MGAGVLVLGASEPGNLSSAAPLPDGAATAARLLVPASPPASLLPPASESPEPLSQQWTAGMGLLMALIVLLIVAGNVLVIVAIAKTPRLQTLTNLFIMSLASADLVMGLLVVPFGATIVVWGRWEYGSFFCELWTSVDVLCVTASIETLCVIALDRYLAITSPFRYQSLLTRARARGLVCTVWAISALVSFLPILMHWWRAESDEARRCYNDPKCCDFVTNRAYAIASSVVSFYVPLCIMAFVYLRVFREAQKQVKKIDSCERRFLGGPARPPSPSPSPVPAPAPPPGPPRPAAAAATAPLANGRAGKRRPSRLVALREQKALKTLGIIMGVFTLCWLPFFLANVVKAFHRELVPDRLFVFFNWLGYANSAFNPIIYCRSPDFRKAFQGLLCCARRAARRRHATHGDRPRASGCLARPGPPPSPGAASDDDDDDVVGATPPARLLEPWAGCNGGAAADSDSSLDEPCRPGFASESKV

Sequence of Epidermal growth factor receptor (P00533 whole entry): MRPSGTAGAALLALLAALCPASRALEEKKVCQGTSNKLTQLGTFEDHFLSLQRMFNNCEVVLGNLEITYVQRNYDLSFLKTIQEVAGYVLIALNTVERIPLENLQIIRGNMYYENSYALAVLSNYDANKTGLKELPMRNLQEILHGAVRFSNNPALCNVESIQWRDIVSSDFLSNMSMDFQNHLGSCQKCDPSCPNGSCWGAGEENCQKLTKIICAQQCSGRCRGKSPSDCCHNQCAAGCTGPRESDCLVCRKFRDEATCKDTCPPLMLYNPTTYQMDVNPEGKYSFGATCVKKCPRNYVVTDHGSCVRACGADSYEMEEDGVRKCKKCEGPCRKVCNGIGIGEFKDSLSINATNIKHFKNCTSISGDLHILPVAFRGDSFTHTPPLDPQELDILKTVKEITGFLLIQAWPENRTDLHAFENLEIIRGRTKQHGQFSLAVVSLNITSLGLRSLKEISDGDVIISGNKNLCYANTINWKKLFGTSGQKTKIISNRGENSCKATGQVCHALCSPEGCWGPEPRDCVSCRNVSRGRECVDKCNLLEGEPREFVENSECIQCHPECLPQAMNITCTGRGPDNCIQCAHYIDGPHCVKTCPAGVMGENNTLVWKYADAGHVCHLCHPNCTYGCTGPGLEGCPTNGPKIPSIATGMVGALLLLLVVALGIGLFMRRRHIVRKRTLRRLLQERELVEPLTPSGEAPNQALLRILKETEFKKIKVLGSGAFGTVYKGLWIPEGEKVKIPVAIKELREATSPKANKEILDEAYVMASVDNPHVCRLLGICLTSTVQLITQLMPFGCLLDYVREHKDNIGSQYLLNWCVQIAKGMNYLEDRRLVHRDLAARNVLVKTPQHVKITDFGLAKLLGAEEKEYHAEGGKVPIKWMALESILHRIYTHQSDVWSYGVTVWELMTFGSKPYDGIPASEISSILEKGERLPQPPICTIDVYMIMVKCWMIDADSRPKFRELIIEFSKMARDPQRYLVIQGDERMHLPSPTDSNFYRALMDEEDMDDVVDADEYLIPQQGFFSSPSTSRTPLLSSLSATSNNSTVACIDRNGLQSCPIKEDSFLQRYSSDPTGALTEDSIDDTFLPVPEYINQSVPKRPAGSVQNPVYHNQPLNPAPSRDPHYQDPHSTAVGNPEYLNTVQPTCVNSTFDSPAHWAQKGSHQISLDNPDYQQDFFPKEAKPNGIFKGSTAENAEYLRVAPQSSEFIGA
Sequence of 5-hydroxytryptamine receptor 4 (O70528 whole entry): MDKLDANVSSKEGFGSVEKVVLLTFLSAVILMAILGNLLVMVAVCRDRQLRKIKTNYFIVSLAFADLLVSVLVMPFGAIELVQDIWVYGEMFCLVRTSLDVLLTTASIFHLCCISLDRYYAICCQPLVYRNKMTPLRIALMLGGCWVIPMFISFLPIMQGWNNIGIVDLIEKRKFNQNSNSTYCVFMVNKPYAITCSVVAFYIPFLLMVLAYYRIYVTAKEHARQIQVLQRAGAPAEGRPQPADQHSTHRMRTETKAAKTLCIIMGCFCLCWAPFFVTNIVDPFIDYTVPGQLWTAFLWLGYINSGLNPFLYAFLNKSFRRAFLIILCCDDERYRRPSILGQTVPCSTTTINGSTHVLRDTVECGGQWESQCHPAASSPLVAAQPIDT

SMILES | IC50 [1] | Ki [1] | IC50 [2] | Ki [2] | IC50 [3] | IC50 [4] | Ki [4] | IC50 ([5]; insect cells) | IC50 [6] | IC50 ([5]; read-out: IC50) [nM] | IC50 ([1]; read-out: IC50) [nM] | Ki ([1]; read-out: Ki) [nM]
COc1nc(C)nc(Cl)c1NC1=NCCN1 [MOXONIDINE] | Not Active | Not Active | Not Active | Not Active | Not Active | Not Active | Not Active | Not Active | Not Active | – | – | –
N[C@@H](Cc1ccc(O)c(O)c1)C(=O)O [LEVODOPA] | Not Active | Not Active | Not Active | Not Active | Not Active | Not Active | Not Active | – | Not Active | 2880 | – | –
OCCN(CCO)c1nc(N2CCCCC2)c2nc(N(CCO)CCO)nc(N3CCCCC3)c2n1 [DIPYRIDAMOLE] | – | – | Not Active | Not Active | Not Active | Not Active | Not Active | Not Active | Not Active | – | 382 | 311
Cn1ccnc1S [METHIMAZOLE] | Not Active | Not Active | Not Active | Not Active | Not Active | Not Active | Not Active | Not Active | Not Active | – | – | –
CC(=O)[C@@]1(O)CC[C@H]2[C@@H]3C[C@H](C)C4=CC(=O)CC[C@]4(C)[C@H]3CC[C@@]21C | Not Active | Not Active | Not Active | Not Active | Not Active | Not Active | Not Active | Not Active | Not Active | – | – | –
C=CCC1(C(C)CCC)C(=O)NC(=O)NC1=O (stereo unspecified) [SECOBARBITAL] | Not Active | Not Active | Not Active | Not Active | Not Active | Not Active | Not Active | Not Active | Not Active | – | – | –
C[C@@H]1CN(c2c(F)c(N)c3c(=O)c(C(=O)O)cn(C4CC4)c3c2F)C[C@H](C)N1 [SPARFLOXACIN] | Not Active | Not Active | Not Active | Not Active | Not Active | Not Active | Not Active | Not Active | Not Active | – | – | –
O=c1ncn2nc(Sc3ccc(F)cc3F)ccc2c1-c1c(Cl)cccc1Cl [NEFLAMAPIMOD] | – | – | Not Active | Not Active | Not Active | Not Active | Not Active | Not Active | Not Active | – | 12000 | 9770
Nc1c2c(nc3ccccc13)CCCC2 [TACRINE] | Not Active | Not Active | Not Active | Not Active | Not Active | Not Active | Not Active | Not Active | Not Active | – | – | –
CO[C@H]1/C=C/O[C@@]2(C)Oc3c(C)c(O)c4c(O)c(c(/C=N/N5CCN(C)CC5)c(O)c4c3C2=O)NC(=O)/C(C)=C\C=C\[C@H](C)[C@H](O)[C@@H](C)[C@@H](O)[C@@H](C)[C@H](OC(C)=O)[C@@H]1C [RIFAMPIN] | Not Active | Not Active | Not Active | Not Active | Not Active | Not Active | Not Active | Not Active | Not Active | – | – | –
CCCCc1oc2ccccc2c1C(=O)c1cc(I)c(OCCN(CC)CC)c(I)c1 [AMIODARONE] | – | – | – | – | Not Active | – | – | Not Active | – | – | – | –
CCOC(=O)N1CCC(=C2c3ccc(Cl)cc3CCc3cccnc32)CC1 [LORATADINE] | Not Active | Not Active | Not Active | Not Active | Not Active | Not Active | Not Active | Not Active | Not Active | – | – | –
N[C@@H](Cc1ccc(N(CCCl)CCCl)cc1)C(=O)O | Not Active | Not Active | Not Active | Not Active | Not Active | Not Active | Not Active | Not Active | Not Active | – | – | –
Cc1noc(NS(=O)(=O)c2ccc(N)cc2)c1C [SULFISOXAZOLE] | Not Active | Not Active | Not Active | Not Active | Not Active | Not Active | Not Active | Not Active | Not Active | – | – | –
N[C@@H](Cc1cc(I)c(Oc2ccc(O)c(I)c2)c(I)c1)C(=O)O [LIOTHYRONINE] | – | – | – | – | Not Active | – | – | Not Active | Not Active | – | – | –
c1ccc([C@H]2CN3CCSC3=N2)cc1 [LEVAMISOLE] | Not Active | Not Active | Not Active | Not Active | Not Active | Not Active | Not Active | Not Active | Not Active | – | – | –
